This test addresses T1, Interleukin-1 receptor-associated kinase 4 (Homo sapiens, UniProt Q9NWZ3).
T1 sequence (Q9NWZ3 whole entry): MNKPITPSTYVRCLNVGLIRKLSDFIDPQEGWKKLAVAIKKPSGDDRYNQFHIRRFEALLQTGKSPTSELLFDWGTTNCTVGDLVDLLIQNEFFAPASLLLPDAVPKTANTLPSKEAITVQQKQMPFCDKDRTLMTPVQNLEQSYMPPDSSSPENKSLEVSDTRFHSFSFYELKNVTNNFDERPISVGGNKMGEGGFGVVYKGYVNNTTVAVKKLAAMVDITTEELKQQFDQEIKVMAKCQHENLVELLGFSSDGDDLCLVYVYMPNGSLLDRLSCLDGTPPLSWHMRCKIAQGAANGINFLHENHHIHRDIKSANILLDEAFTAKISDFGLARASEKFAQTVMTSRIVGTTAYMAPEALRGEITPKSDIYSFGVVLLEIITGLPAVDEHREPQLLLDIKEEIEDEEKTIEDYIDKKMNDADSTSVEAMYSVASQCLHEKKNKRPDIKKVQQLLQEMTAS
Put plainly: Biochemical Assay: The biochemical assay is in a AlphaScreen format. The kinase reaction is based on the IRAK-4 phosphorylation of a biotin labeled peptide. The phosphopeptide is incubated with anti-phosphothreonine antibody as well as streptavidin- and protein A-coated beads. Binding of the protein-A coated beads to the antibody and the streptavidin beads to the peptide, leads to an energy transfer from one bead to the other, ultimately producing a luminescent/fluorescent signal.Generally, the kinase reaction is carried out at 1 nM IRAK4, 1.6 μM peptide, 1 mM ATP in reaction buffer 50 mM Hepes, 60 mM NaCl, 5 mM MgCl2, 0.25 mM MnCl2, 2 mM DTT, 0.01% BSA, 0.01% Tween-20) for 3.5 h at RT. For orientation: Alpha assays give light when donor and acceptor beads are brought close together.
In the case of `N#CCNC(=O)c1cc(N)cc(-c2ccc3cnn(-c4cccc(C(F)(F)F)n4)c3c2)c1`, the IC50 (as a rule, the midpoint of a concentration-inhibition curve) is under 100 nM.

In turn, `CCC[C@H](N)c1cccc(-c2cc(N3CCC3)c3cnn(-c4cccc(CO)n4)c3c2)n1` returned an IC50 of under 100 nM. On to `CCc1cccc(-c2cc(-c3nnc(C)o3)c3cnn(-c4cccc(CO)n4)c3c2)n1`, for which the IC50 was under 100 nM. `CCC[C@H](N)c1cccc(-c2cc(N3CCOCC3)c3cnn(-c4cccc(CO)n4)c3c2)n1` gave an IC50 of under 100 nM.
